Assay results: the supplement of paper PMC10307832

Assays:
Experiment in all cases: relative viability (nuclei count vs DMSO), 5 days (fraction); higher = more cells survive
RO-3306 + Vorinostat = compound: C1=CC2=C(C=CC(=C2)C=C3C(=O)NC(=NCC4=CC=CS4)S3)N=C1 [RO-3306] + O=C(CCCCCCC(=O)Nc1ccccc1)NO [Vorinostat] (partner 1 µM)
Summary of the method: (§1)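 Lung cancer cell lines were pin-tool dosed in 1536-well plates on the day after seeding, with either a lone drug or a fixed anchor-drug dose plus five library-drug doses (not always all listed) in √10 steps. Nuclei were counted on 4× images after 5 days. Relative viability is the ratio of treated-well to vehicle-well nuclei counts, with each value a median of duplicate plates.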

[1] = compound: O=S(=O)(c1ccccc1)N(CC(F)(F)F)c1ccc(C(O)(C(F)(F)F)C(F)(F)F)cc1 + CC1(C)CCC(c2ccc(Cl)cc2)=C(CN2CCN(c3ccc(C(=O)NS(=O)(=O)c4ccc(N[C@H](CCN5CCOCC5)CSc5ccccc5)c(S(=O)(=O)C(F)(F)F)c4)cc3)CC2)C1 [Navitoclax] (partner 0.5 µM)
Summary of the method: as §1

RO-3306 + Palbociclib = compound: C1=CC2=C(C=CC(=C2)C=C3C(=O)NC(=NCC4=CC=CS4)S3)N=C1 [RO-3306] + CC(=O)c1c(C)c2cnc(Nc3ccc(N4CCNCC4)cn3)nc2n(C2CCCC2)c1=O [Palbociclib] (partner 0.5 µM)
Summary of the method: as §1

RO-3306 + Navitoclax = compound: C1=CC2=C(C=CC(=C2)C=C3C(=O)NC(=NCC4=CC=CS4)S3)N=C1 [RO-3306] + CC1(C)CCC(c2ccc(Cl)cc2)=C(CN2CCN(c3ccc(C(=O)NS(=O)(=O)c4ccc(N[C@H](CCN5CCOCC5)CSc5ccccc5)c(S(=O)(=O)C(F)(F)F)c4)cc3)CC2)C1 [Navitoclax] (partner 0.5 µM)
Summary of the method: as §1

Cell Line	relative viability (RO-3306 + Vorinostat; first compound 0.01 µM)	relative viability (RO-3306 + Vorinostat; first compound 0.03162 µM)	relative viability (RO-3306 + Vorinostat; first compound 0.1 µM)	relative viability (RO-3306 + Vorinostat; first compound 0.3162 µM)	relative viability (RO-3306 + Vorinostat; first compound 1 µM)	relative viability ([1]; first compound 0.8 µM)	relative viability ([1]; first compound 2.53 µM)	relative viability ([1]; first compound 8 µM)	relative viability (RO-3306 + Palbociclib; first compound 0.01 µM)	relative viability (RO-3306 + Palbociclib; first compound 0.03162 µM)	relative viability (RO-3306 + Palbociclib; first compound 0.1 µM)	relative viability (RO-3306 + Palbociclib; first compound 0.3162 µM)	relative viability (RO-3306 + Palbociclib; first compound 1 µM)	relative viability (RO-3306 + Navitoclax; first compound 0.01 µM)	relative viability (RO-3306 + Navitoclax; first compound 0.03162 µM)	relative viability (RO-3306 + Navitoclax; first compound 0.1 µM)	relative viability (RO-3306 + Navitoclax; first compound 0.3162 µM)	relative viability (RO-3306 + Navitoclax; first compound 1 µM)
HCC-15	0.923	0.712	0.898	0.854	0.773	0.639	0.593	0.619	0.787	0.606	0.677	0.669	0.742	0.727	0.656	0.716	0.808	0.654
HCC-44	1.1	1.15	1.08	1.13	1.17	1.09	1.01	0.933	1.01	0.932	0.993	0.96	0.952	1.09	1.01	0.932	1.08	1.03
NCI-H2170	0.901	0.568	0.886	0.842	0.856	0.715	0.681	0.547	0.416	0.398	0.372	0.433	0.378	0.571	0.447	0.593	0.62	0.595
NCI-H2228	0.648	0.737	0.615	0.612	0.368	0.839	0.89	0.713	0.753	0.404	0.622	0.771	0.433	1.19	0.805	0.673	1.07	0.62
NCI-H727	1.08	1.25	1.02	1.3	1.06	0.387	0.407	0.507	0.623	0.613	0.552	0.557	0.604	0.45	0.395	0.433	0.471	0.455
NCI-H522	0.93	0.792	0.98	0.959	0.801	–	–	–	1.2	0.965	1.01	1.02	1.04	–	–	–	–	–
EPLC-272H	0.243	0.479	0.386	0.382	0.198	1.24	1.08	0.795	0.254	–	0.342	0.304	0.302	1.15	0.92	1.02	1.11	0.994
NCI-H1437	0.848	0.782	0.807	0.751	0.688	1.04	0.859	0.893	0.312	0.316	0.294	0.317	0.289	1.16	0.996	1.05	1.13	1.1
CAL-12T	1.08	0.66	0.647	0.809	0.694	1.18	1.35	0.832	0.67	0.396	0.385	0.388	0.475	1.01	1.07	1.32	1.16	1.13
SK-LU-1	0.854	0.711	0.786	0.786	0.605	1.18	0.865	0.56	0.365	0.366	0.382	0.336	0.355	1.08	0.837	0.774	0.926	0.832
LCLC-97TM1	0.804	0.546	0.694	0.789	1.1	0.535	0.368	0.344	0.203	0.218	0.237	0.214	0.194	–	0.292	0.354	0.399	0.317
LXF-289	0.789	0.807	0.695	0.749	0.744	0.879	0.826	0.852	0.62	0.631	0.627	0.577	0.616	0.992	0.961	0.972	0.976	0.993
HCC-366	0.454	0.279	0.25	0.378	0.308	1.19	1.03	1.03	0.531	0.395	0.381	0.382	0.316	1.22	0.943	0.991	1.14	1.15
NCI-H1355	0.694	0.538	0.644	0.6	0.591	1.09	0.754	0.826	0.421	0.406	0.405	0.412	0.38	1.12	0.915	0.949	1.04	0.946
H3255	0.788	0.743	0.802	0.826	0.819	0.537	0.64	0.503	0.299	0.373	0.294	0.305	0.321	0.458	0.484	0.558	0.47	0.428
ChaGo-K-1	0.808	0.654	0.699	0.782	0.557	0.978	1.02	1.59	1.04	0.854	0.911	0.871	0.578	0.971	1.23	0.629	0.952	0.675
NCI-H2023	0.684	0.524	0.651	0.806	0.5	1.07	0.888	0.845	0.389	0.376	0.276	0.443	0.251	1.05	0.912	0.898	0.943	1.01
NCI-H1299	–	–	–	–	–	1.06	1	0.983	–	–	–	–	–	1.08	1.11	1.04	1	1.03
